Values joined by “and” are separate entries in the source; they are usually repeats but may differ in a detail not shown here. Equal values may be shown once.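 Compound exposure: 48 hours, 5 concentrations, 96-well plates. Abbreviation: GI50, concentration required for 50% inhibition of growth. Definition used: TGI = concentration required for complete inhibition of growth.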
System: MDA-MB-468 breast
Assay: growth of human tumour cells (NCI), 48 h

SMILES	GI50	TGI
Cc1cc2nc3c4cc(O)ccc4n(CCN(C)C)c3nc2cc1C	816 nM	2780 nM
C#Cc1nc(/C=C/C(=O)c2nccn2C)cs1	470 nM	1470 nM
O=C(Cc1ccc(/C=C/C(=O)c2ncc[nH]2)cc1)Nc1ccc(F)cc1	974 nM	3140 nM
O=c1c2c(=NCCN3CCCC3)cc3c(=O)n(CCCN4CCOCC4)c(=O)c4c(-c5ccc(CN6CCCC6)cc5)cc(c(O)n1CCCN1CCOCC1)c2c4-3	32.4 nM	119 nM
CCN1C(=S)N(c2ccccc2)C2NC(=S)N(/N=C/C=C/c3ccccc3OC)C21 (stereo not drawn)	292 nM	1060 nM
CC(=O)O[C@H]1C(=O)[C@@]2(C)C(C(OC(=O)c3ccccc3)[C@]3(O)C[C@H](OC(=O)C(OC(=O)CCCC(=O)NCCCN(C)C)C(NC(=O)c4ccccc4)c4ccccc4)C(C)=C1C3(C)C)C1(OC(C)=O)COC1C[C@@H]2O (stereo partly drawn)	< 10 nM	10400 nM
N#Cc1c(-n2c(Br)c(Br)c3cc(Br)ccc32)[nH]c2c(Br)cc(Br)cc12	907 nM	3340 nM
Cc1cccc(N(C)C(=O)[C@@H]2[C@H](O)CCN2c2nc(C)cc(C(F)(F)F)c2C#N)c1	17300 nM	51300 nM
O=Nc1ccc(O)c(=O)cc1	739 nM	2440 nM
Cc1nc2ccc(Nc3nc(Cl)nc(N4CCOCC4)n3)cc2n1Cc1ccccc1	2210 nM	7090 nM
O=S(=O)(NCCCNc1nccc(-c2c(-c3ccc(O)cc3)nc3sccn23)n1)c1ccc(F)cc1	2000 nM	9430 nM
CCCCCCNC(=O)Oc1ccc(/C(=C(/C)c2ccc(OC)cc2)c2ccc(OCCN3CCCCCC3)cc2)cc1	2040 nM	4760 nM
CC(=O)c1ccc2c(c1)c1cc(C(C)=O)ccc1n2CCNC(C)C	330 nM	1740 nM
CC(=O)Nc1ccc2c(c1)C(c1ccccc1Cl)=Nc1c(n[nH]c1C)N2	1630 nM	> 25000 nM
CCN(CC)c1ccc(/C=N/NC(=O)CSc2nc3ccccc3c(=O)n2CCc2ccc(S(N)(=O)=O)cc2)c(O)c1	2120 nM	> 100000 nM
CC(C)(C)c1ccc(S(=O)(=O)Oc2ccc3c4c(c(=O)oc3c2)CCCCC4)cc1	3410 nM	> 100000 nM
CCSCC1CC(O)(c2ccccc2)CC(c2ccc(F)cc2)O1 (stereo not drawn)	2040 nM	6050 nM
CCN(Cc1ccc(C)cc1)c1ccc(CO)c(Cl)c1	16.9 nM	44.5 nM
COc1ccc(C2=N[C@@H](Cc3ccccc3)C(=O)Nc3ccsc32)cc1	1760 nM	4580 nM
NS(=O)(=O)c1ccc(Nc2cc(-c3cccc(O)c3)[nH]n2)cc1	9580 nM	> 25000 nM
Cc1cc(O)c(=O)cc2c1C[C@H]1CC(C)(C)/C=C/C[C@]3(C)Oc4cc(=O)c(O)cc(C)c4C[C@H]3C[C@H](O)[C@@]1(C)O2	< 15.2 nM and 7.03 nM	243 nM and 106 nM

SMILES	GI50	TGI
CCOC(=O)c1ccc(NC(=O)Nc2nncs2)cc1	176 nM	14800 nM
Fc1cc2[nH]ncc2c2c3c(c(-c4cn[nH]c4C(F)(F)F)nc12)CCCC3	1580 nM	4350 nM
COC[C@@H](N=C1NC(=O)/C(=C/c2ccc3ncccc3c2)S1)c1ccccc1	4510 nM	17600 nM
Cc1nc([P+](c2ccccc2)(c2ccccc2)c2ccccc2)c(Sc2sc(-c3ccccc3)nc2[P+](c2ccccc2)(c2ccccc2)c2ccccc2)o1	417 nM	3280 nM
O=C(Nc1ccc2[nH]nc(-c3ccncc3)c2c1)[C@@H]1CCN(CC(=O)N2CCN(c3ccc(-c4ncccn4)cc3)CC2)C1	> 100000 nM	> 100000 nM
Nc1nccc(-c2c(-c3ccc(F)cc3)ncn2C2CCNCC2)n1	649 nM and 2520 nM	> 10800 nM and 11500 nM
CN(c1ncccc1CNc1nc(Nc2ccc3c(c2)CC(=O)N3)ncc1C(F)(F)F)S(C)(=O)=O	1830 nM and 1620 nM	4040 nM and 4840 nM
CCC(C)[C@H]1O[C@]2(CC[C@@H]1C)C[C@@H]1C[C@@H](C/C=C(\C)[C@@H](OC3C[C@H](OC)C(O[C@H]4C[C@H](OC)[C@@H](O)[C@H](C)O4)[C@H](C)O3)[C@@H](C)/C=C/C=C3\CO[C@@H]4[C@H](O)C(C)=C[C@@H](C(=O)O1)[C@]34O)O2 (stereo partly drawn)	1600 nM	3400 nM
C=C1CC[C@@H]2[C@](C)(COC(C)=O)[C@H](OC(C)=O)CC[C@@]2(C)[C@@H]1CC(Nc1ccc(S(=O)(=O)NC(C)=O)cc1)C1=CCOC1=O (stereo partly drawn)	1530 nM	3130 nM
OCCN1CCN(CCCN2c3ccccc3Sc3ccc(Cl)cc32)CC1	1270 nM	2700 nM
O=C(CCCCCCNC(=O)C(O)(O)C(F)(F)F)Nc1ccc(Cl)cc1	1380 nM	22200 nM
COc1ccc(C2CC(c3cccc(Nc4ccnc5cc(Cl)ccc45)c3)=NN2C=O)cc1 (stereo not drawn)	239 nM	836 nM
COc1cc(C2Cc3ncccc3-c3[nH]c(=O)c4cccnc4c32)cc(OC)c1OC (stereo not drawn)	340 nM	–
CS(=O)(=O)Nc1cncc(-c2ccc3ncnc(Nc4ccc(F)c(Cl)c4)c3c2)c1	181 nM	936 nM
Fc1cccc(COc2ccc(Nc3ncnc4sc(-c5cccs5)cc34)cc2Cl)c1	201 nM	2310 nM
COc1cc(/C=C\c2cc(OC)c(OC)c(OC)c2)cc(N/C=C\C(=O)c2ccc(OC(F)(F)F)cc2)c1OC	3160 nM	> 100000 nM
C/C(=N\NC(=S)N1CCCCC1)c1ccccn1	< 10 nM	135 nM
CC(N)C(Cc1ccc(Cl)cc1)c1ccc(Cl)cc1 (stereo not drawn)	2960 nM	11700 nM
COc1ccc(/C=C/C(=O)c2cc(OC)c(OC)c(OC)c2)cc1OCC(=O)Nc1nc2ccc(OC(F)(F)F)cc2s1	3520 nM	21200 nM
COc1cc(OC)c(S(N)(=O)=O)cc1C(=O)/C=C/c1ccccc1	1200 nM	9280 nM
CCOC(=O)c1cc(C(=O)c2cc(OC)c(OC)c(OC)c2)n2ncccc12	248 nM	32200 nM
